# From patent EP0337598A2, “Use of porphyrins and metalloporphyrins in the treatment of diseases caused by Human Immunodeficiency Viruses” (GEORGIA STATE UNIVERSITY FOUNDATION, INC., priority 1988, dated 1989)
# Structures can show the parent of a compound that is named as a salt. Where two headings read alike, the source gives them in different places.
# Tests used:
# LAV strain of HIV = assay: Assay of anti-HIV activity: HIV production in infected MT-4 cells; format: cell-based; conditions: in the dark, result in words
# [1] = intravenous, cat; cited from earlier work
# [2] = intravenous, rabbit; cited from earlier work
# [3] = intravenous, rat; cited from earlier work
# [4] = tested on: Herpes simplex virus (HSV) type 1, strain WT-51; assay: Anti-HSV activity: virus infectivity in culture fluid of infected BS-C-40 monolayers by plaque method; format: cell-based; conditions: m.o.i. 0.01, 18 hours of incubation, result in words
# Method: Herpes simplex virus (HSV) type 1, strain WT-51, and BS-C-40, an African green monkey kidney cell line, were used. HSV stock was prepared in BS-C-40 and the infectivity of the virus was measured on BS-C-40 monolayers by plaque method. Eagle's minimal essential medium (MEM) supplemented with 8% newborn calf serum was used as the culture medium and cells were incubated at 37°C in a humidified CO₂-incubator (5% CO₂, 95% air).
# BS-C-40 monolayers were infected with HSV at the m.o.i. of 0.01 at 37°C for 1 hour and the monolayers were washed with MEM, and fresh culture medium was added. After 18 hours of incubation in the presence or absence of protoporpyrin, the virus infectivity in the culture fluid was measured by plaque method.
# Two tenths ml aliquots of serially 10-fold diluted virus were inoculated onto confluent monolayer of cells in 35 mm plastic petridishes. After adsorption of the virus at 37°C for 1 hour, the monolayers were overlaid with 2 ml of MEM with 1% methylcellulose and 2% newborn calf serum. On day 3, the monolayers were stained with neutral red and plaque counts were made.
# [5] = mouse, cited from earlier work
structure (smiles),measurement,setting,value
C=CC1=C(C)c2cc3[nH]c(cc4nc(cc5[nH]c(cc1n2)c(C)c5CCC(=O)O)C(CCC(=O)O)=C4C)c(C)c3C=C [Protoporphyrin disodium salt],anti-HIV activity (antivirally active when production of HIV was reduced as compared with the control),LAV strain of HIV,potent anti-HIV activity
same,LD₅₀,[1],215.5 mg/kg
same,LD₅₀,[2],220.0 mg/kg
same,LD₅₀,[3],240.3 mg/kg
same,anti-HSV activity,[4],no anti-HSV activity
same,LD₅₀,[5]; intraperitoneal,"1,028.6 mg/kg"
same,LD₅₀,[5]; intravenous,347.3 mg/kg
same,LD₅₀,[5]; oral,"> 25,000.0 mg/kg"
same,LD₅₀,[5]; subcutaneous,"1,147.0 mg/kg"
